Among the data in BindingDB's records for doi:10.1016/j.bmc.2009.07.051 (La Rochelle University, 2009) are IC50 values, retold here.

The target in experiment [1] is Cyclin-dependent kinase 5 activator 1 (Homo sapiens, UniProt Q15078+Q00535). Description: Inhibition of GST-fused CDK5/p25 expressed in Escherichia coli assessed as [gamma-33P]ATP incorporation after 10 mins by scintillation counting.
The target of experiment [2] is Dual specificity tyrosine-phosphorylation-regulated kinase 1A (Rattus norvegicus, UniProt Q63470). Description: Inhibition of GST-fused rat recombinant DYRK1A expressed in Escherichia coli assessed as [gamma-33P]ATP incorporation after 10 mins by scintillation counting.

Cyclin-dependent kinase 5 activator 1, sequence (Q15078 whole entry, the tested form may be a part): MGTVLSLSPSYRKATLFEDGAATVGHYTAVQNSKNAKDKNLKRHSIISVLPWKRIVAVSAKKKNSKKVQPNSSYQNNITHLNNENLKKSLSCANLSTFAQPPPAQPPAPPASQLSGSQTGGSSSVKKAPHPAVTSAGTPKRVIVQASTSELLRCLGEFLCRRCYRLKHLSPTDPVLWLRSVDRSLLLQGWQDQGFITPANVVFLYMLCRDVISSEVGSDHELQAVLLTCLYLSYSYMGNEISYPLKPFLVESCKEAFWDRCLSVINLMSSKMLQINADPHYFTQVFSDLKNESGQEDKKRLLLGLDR
Cyclin-dependent kinase 5 activator 1, sequence (Q00535 whole entry, the tested form may be a part): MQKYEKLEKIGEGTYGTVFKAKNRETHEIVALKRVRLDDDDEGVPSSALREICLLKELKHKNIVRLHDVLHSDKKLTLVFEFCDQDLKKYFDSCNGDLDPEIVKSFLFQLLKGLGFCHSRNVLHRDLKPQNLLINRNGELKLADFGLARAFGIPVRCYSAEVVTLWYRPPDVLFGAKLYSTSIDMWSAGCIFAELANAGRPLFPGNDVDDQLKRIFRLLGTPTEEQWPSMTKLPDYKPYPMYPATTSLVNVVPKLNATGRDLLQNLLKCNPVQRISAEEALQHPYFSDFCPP

Regarding `O=C1C(C2C(=O)Nc3cc([N+](=O)[O-])ccc32)=Nc2ccc(Br)cc21` (stereo unspecified), the half-inhibitory concentration (IC50) in experiment [1] was over 10 µM.

Regarding `O=C1C(C2C(=O)Nc3cc([N+](=O)[O-])ccc32)=Nc2ccccc21` (stereo unspecified) [(2''Z)-6-Nitroindirubin], the IC50 in experiment [1] is over 10 µM.

Take `O=C1C(C2C(=O)Nc3c(Br)cc([N+](=O)[O-])cc32)=Nc2ccc(Br)cc21` (stereo unspecified) [(2'Z)-5'-7-Dibromo-5-nitroindirubin]: the IC50 in experiment [1] and in experiment [2] was over 10 µM throughout.

With `O=C1N=c2c(Br)cc([N+](=O)[O-])cc2=C1c1[nH]c2ccccc2c1O` [(2'Z)-7-Bromo-5-nitroindirubin], the IC50 in experiment [1] and in experiment [2] was over 10 µM throughout.

Take `Nc1ccc2c(c1)C(c1[nH]c3ccc(Br)cc3c1N=O)C(=O)N2` (stereo unspecified) [(Z)-5'-Amino-5-bromo-1H,1'H-[2,3']biindolylidene-3,2'-dione 3-oxime]: the 50% inhibitory concentration (IC50) in experiment [2] was over 10 µM.

Take `O=C1N=c2ccc([N+](=O)[O-])cc2=C1c1[nH]c2ccccc2c1O` [(Z)-5'-Nitro-1H,1'H-[2,3']biindolylidene-3,2'-dione]: the IC50 in experiment [2] was over 10 µM.

On to `O=Nc1c(C2C(=O)Nc3c(Br)cc([N+](=O)[O-])cc32)[nH]c2ccc(Br)cc12` (stereo unspecified) [(Z)-5,7'-Dibromo-5'-nitro-1H,1'H-[2,3']biindolylidene-3,2'-dione 3-oxime], for which the IC50 in experiment [1] and in experiment [2] was over 10 µM throughout.

Turning to `O=Nc1c(C2C(=O)Nc3ccc([N+](=O)[O-])cc32)[nH]c2ccc(Br)cc12` (stereo unspecified) [(Z)-5-Bromo-5'-nitro-1H,1'H-[2,3']biindolylidene-3,2'-dione 3-oxime], the IC50 in experiment [2] is over 10 µM.

Consider `O=C1C(C2C(=O)Nc3ccc([N+](=O)[O-])cc32)=Nc2ccc(Br)cc21` (stereo unspecified) [(Z)-5-Bromo-5'-nitro-1H,1'H-[2,3']biindolylidene-3,2'-dione], for which the IC50 in experiment [1] and in experiment [2] was over 10 µM in each case.

In the case of `O=Nc1c(C2C(=O)Nc3c(Br)cc([N+](=O)[O-])cc32)[nH]c2ccccc12` (stereo unspecified) [(Z)-7'-Bromo-5'-nitro-1H,1'H-[2,3']biindolylidene-3,2'-dione 3-oxime], the concentration for half-maximal inhibition (IC50) in experiment [1] and in experiment [2] was over 10 µM each time.

As to `CC(=O)Nc1ccc2c(c1)C(c1[nH]c3ccc(Br)cc3c1N=O)C(=O)N2` (stereo unspecified) [N-{(Z)-5-Bromo-3-[(E)-hydroxyimino]-2'-oxo-1,3,1',2'-tetrahydro-[2,3']biindolyliden-5'-yl}-acetamide], the 50% inhibitory concentration (IC50) in experiment [2] is over 10 µM.

What is called IC50 is the concentration needed to halve the response being measured.
